Experimental data published in patent publication US6509001B1, “Calcitonin receptor binding reagents” (Diatide, Inc., priority 1997, dated 2003).
Where two headings read alike, the source gives them in different places. Starred links: 1 amine or outer side, 2 acyl side, 3 side chain; linkers in the order of their positions; H or OH if unused. Positions of bridges follow the written chain, without caps; N, C: chain ends. Non-standard residues stand in square brackets, D forms with d. Residues, ends and D or L forms follow the SMILES beside them. *: point of attachment. X2 = NCCCC[C@H](NC(=O)[C@H](CS)NC(=O)[C@H](CCCCN)NC(=O)[C@@H](N)CNC(=O)C*)C(N)=O; X1 = NCCCC[C@H](NC(=O)[C@H](CS)NC(=O)CNC(=O)CNC(=O)C*)C(N)=O; hhCys(CH2CO) = O=C([C@H](CCCSCC(=O)[*:3])N[*:1])[*:2]; εLys = N[C@@H](CCCCN[*:1])C(=O)[*:2]; X3 = CC(C)(S)CNCCN(CCCCC*)CC(C)(C)S

Experiments:
[1] = target: T1, CT receptor (Homo sapiens, UniProt P30988); assay: Displacement of 125I-CT from CT receptor in T-47D cell membranes; type: binding
T1 construct: Assays using microsomal membrane fractions of rat brain and T-47D cells; host or cells: T-47D
T1 sequence (P30988 25-474): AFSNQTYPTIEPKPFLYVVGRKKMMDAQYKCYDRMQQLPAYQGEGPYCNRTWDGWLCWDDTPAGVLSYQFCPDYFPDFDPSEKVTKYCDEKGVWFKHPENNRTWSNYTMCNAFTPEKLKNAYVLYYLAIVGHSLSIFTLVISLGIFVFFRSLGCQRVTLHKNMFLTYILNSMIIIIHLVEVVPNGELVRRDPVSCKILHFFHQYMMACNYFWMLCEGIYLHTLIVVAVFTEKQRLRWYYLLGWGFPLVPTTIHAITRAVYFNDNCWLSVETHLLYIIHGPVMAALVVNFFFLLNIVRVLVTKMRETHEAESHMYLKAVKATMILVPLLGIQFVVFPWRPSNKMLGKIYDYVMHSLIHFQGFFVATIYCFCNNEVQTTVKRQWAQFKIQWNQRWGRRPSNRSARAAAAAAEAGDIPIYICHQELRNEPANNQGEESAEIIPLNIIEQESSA
Protocol: (§1) Peptide reagents within the scope of the invention, or ReO complexed embodiments thereof, were tested using in vitro assays that measure their ability to inhibit the specific binding of ^125I-CT to the CT receptor, using membranes from rat brain or from a breast tumor cell line, and on whole cells from breast tumor cell lines, as described in detail below.
(§2) Assays using microsomal membrane fractions of rat brain and T-47D cells (obtained from the American Type Culture collection, Rockville, Md., ATCC Accession No. HTB-133) were used to identify analogs with high affinity for the CT receptor according to the method of Fisher et al. (1977, British J. Cancer 35: 777-784). Briefly, tissue was minced and homogenized. The membranes were washed several times, assayed for protein content and used in the binding assay. Membrane protein was incubated with 0.1 μCi of ^125I-salmon CT (Amersham, Cleveland, Ohio) in he presence or absence of varying concentrations of reagents to be tested. Both uncomplexed and ReO complexed reagents were tested. One hundred percent specific binding of ^125I-CT to the CT receptor was defined as the difference between total ^125I-CT binding and nonspecific binding of ^125I-CT measured in the presence of a receptor-saturating concentration (1 μM) of excess unlabeled salmon CT (Sigma, St. Louis, Mo.).

[2] = Biodistribution of 99mTc-CT peptide in rat; type: in vivo; conditions: 99mTc-labeled peptide; for tissue uptake dose at […] / tissue uptake at […]: 0.025 mCi; for tissue uptake dose at […]: 90 minutes; for tissue uptake at […]: 90 minutes post-injection
Protocol: (§3) CT receptor expressing breast cancer cells (T47D and MCF-7) were implanted into immune deficient mice or Sprague-Dawley rats and allowed to grow tumors. For testing new ^99mTc-CT peptides, tumor-bearing mice or rats were injected with approximately 0.025 mCi at approximately 6 mCi/10 nmol peptide. The animals were cervically dislocated and imaged statically for 5 minutes using a gamma camera. The biodistribution of the ^99mTc-CT peptide was then determined by counting blood, tumor, target organs and muscle in a gamma counter along with standard aliquots of the injected dose. The time points for biodistribution were chosen to represent early, middle and late phases of ^99mTc-CT analog clearance. […] To assess the tumor imaging potential of selected analogs, the ratio of radioactivity in blood and various tissues were compared to that in tumor.

[3] = target: CT receptor; assay: Displacement of 125I-CT from CT receptor in rat brain membranes; type: binding; conditions: displacement of 125I-CT (Table III)
Protocol: as §1, §2

[4] = Biodistribution of 99mTc-CT peptide, T-47D tumor in nude mouse; type: in vivo; conditions: 0.025 mCi, total radioactivity, 99mTc-labeled peptide; for tissue uptake dose at […]: 90 minutes
Source text: (§4) Breast cancer cell lines were screened for receptor expression and the best cell lines chosen for xenograft implantation in immune deficient mice. These tumor models were used to evaluate the tumor targeting potential in vivo of the high affinity peptides identified in the in vitro assays above.
as §3

[5] = tested on: T-47D tumor; assay: as above; type: in vivo; conditions: 99mTc-labeled peptide, 90 minutes
Source text: as §4, §3

[6] = T-47D membranes, displacement of 125I-CT (Table III)
[7] = T-47D membranes, displacement of 125I-CT (Table III), read-out: T-47D IC50

In the case of `CC(C)C[C@H](NC(=O)[C@H](CCCCN)NC(=O)CNC(=O)[C@H](CC(C)C)NC(=O)[C@@H](NC(=O)[C@@H]1CCCSCC(=O)N[C@@H](CO)C(=O)N[C@@H](CC(N)=O)C(=O)N[C@@H](CC(C)C)C(=O)N[C@@H](CO)C(=O)N[C@@H]([C@@H](C)O)C(=O)N1)C(C)C)C(=O)N[C@@H](CO)C(=O)N[C@@H](CSCC(=O)NCC(=O)NCC(=O)N[C@@H](CS)C(=O)N[C@@H](CCCCN)C(N)=O)C(=O)N[C@@H](CCC(=O)O)C(=O)N[C@@H](CC(C)C)C(=O)N[C@@H](Cc1c[nH]cn1)C(=O)N[C@@H](CCCCN)C(=O)N[C@@H](CC(C)C)C(=O)N[C@@H](CCC(N)=O)C(=O)N[C@H](C(=O)N[C@@H](Cc1ccc(O)cc1)C(=O)N1CCC[C@H]1C(=O)N[C@@H](CCCNC(=N)N)C(=O)N[C@H](C(=O)N[C@@H](CC(N)=O)C(=O)N[C@H](C(=O)NCC(=O)N[C@@H](CO)C(=O)NCC(=O)N[C@H](C(=O)N1CCC[C@H]1C(N)=O)[C@@H](C)O)[C@@H](C)O)[C@@H](C)O)[C@@H](C)O` [Peptide 4] (SNLST[hhCys(CH2CO)]VLGKLSC(X1)ELHKLQTYPRTNTGSGTP-NH2; lactam N-6), the IC50 ([1]; T-47D cell membranes (Table IV), read-out: IC50 (nM)x) is reported as 2.6 nM, the “PK (min) t½α” value [2] is reported as 1.4 min and the “PK (min) t½β” value [2] is reported as 19 min. For the same molecule, the tissue uptake dose at […] ([2]; Sprague-Dawley, GI tract, total radioactivity, read-out: GI tract (% ID)) was 2 %ID, the tissue uptake at […] ([2]; Sprague-Dawley, blood, total radioactivity) was 0.027 %ID/g and the tissue uptake dose at […] ([2]; Sprague-Dawley, kidneys, total radioactivity, read-out: Kidneys (% ID)) was 35 %ID. The tissue uptake dose at […] ([2]; Sprague-Dawley, liver, total radioactivity, read-out: Liver (% ID)) was 4 %ID and the tissue uptake dose at […] ([2]; Sprague-Dawley, lung, total radioactivity, read-out: Lung (% ID)) was 0.53 %ID.
A Ki [1, 6] of 0.41 nM, an IC50 [1, 7] of 0.53 nM and an IC50 [3] of 2.6 nM were found for `CC(C)C[C@H](NC(=O)[C@H](CCCCN)NC(=O)CNC(=O)[C@H](CC(C)C)NC(=O)[C@@H](NC(=O)[C@@H]1CCCSCC(=O)N[C@@H](CO)C(=O)N[C@@H](CC(N)=O)C(=O)N[C@@H](CC(C)C)C(=O)N[C@@H](CO)C(=O)N[C@@H]([C@@H](C)O)C(=O)N1)C(C)C)C(=O)N[C@@H](CO)C(=O)N[C@@H](CSCCCCCN(CCNCC(C)(C)S)CC(C)(C)S)C(=O)N[C@@H](CCC(=O)O)C(=O)N[C@@H](CC(C)C)C(=O)N[C@@H](Cc1c[nH]cn1)C(=O)N[C@@H](CCCCN)C(=O)N[C@@H](CC(C)C)C(=O)N[C@@H](CCC(N)=O)C(=O)N[C@H](C(=O)N[C@@H](Cc1ccc(O)cc1)C(=O)N1CCC[C@H]1C(=O)N[C@@H](CCCNC(=N)N)C(=O)N[C@H](C(=O)N[C@@H](CC(N)=O)C(=O)N[C@H](C(=O)NCC(=O)N[C@@H](CO)C(=O)NCC(=O)N[C@H](C(=O)N1CCC[C@H]1C(N)=O)[C@@H](C)O)[C@@H](C)O)[C@@H](C)O)[C@@H](C)O` [Peptide 1] (SNLST[hhCys(CH2CO)]VLGKLSC(X3)ELHKLQTYPRTNTGSGTP-NH2; lactam N-6) in this work.
A Ki [1, 6] of 12 nM, an IC50 [1, 7] of 16 nM and an IC50 [3] of 18 nM were found for `CC(C)C[C@H](NC(=O)[C@H](CCCCN)NC(=O)CNC(=O)[C@H](CC(C)C)NC(=O)[C@@H](NC(=O)[C@@H]1CCCSCC(=O)N[C@@H](CO)C(=O)N[C@@H](CC(N)=O)C(=O)N[C@@H](CC(C)C)C(=O)N[C@@H](CO)C(=O)N[C@@H]([C@@H](C)O)C(=O)N1)C(C)C)C(=O)N[C@@H](CO)C(=O)N[C@@H](CCC(N)=O)C(=O)N[C@@H](CCC(=O)O)C(=O)N[C@@H](CC(C)C)C(=O)N[C@@H](Cc1c[nH]cn1)C(=O)N[C@@H](CCCCN)C(=O)N[C@@H](CC(C)C)C(=O)N[C@@H](CCC(N)=O)C(=O)N[C@H](C(=O)N[C@@H](Cc1ccc(O)cc1)C(=O)N1CCC[C@H]1C(=O)N[C@@H](CCCNC(=N)N)C(=O)N[C@H](C(=O)N[C@@H](CC(N)=O)C(=O)N[C@H](C(=O)NCC(=O)N[C@@H](CO)C(=O)NCC(=O)N[C@H](C(=O)N1CCC[C@H]1C(=O)NCCCC[C@H](N)C(=O)NCC(=O)N[C@@H](CS)C(N)=O)[C@@H](C)O)[C@@H](C)O)[C@@H](C)O)[C@@H](C)O` [Peptide 2] (SNLST[hhCys(CH2CO)]VLGKLSQELHKLQTYPRTNTGSGTP[εLys]GC-NH2; lactam N-6) in this work. The tissue uptake at […] ([4]; 90 minutes post-injection) was 1.6 %ID/g, the tissue uptake dose at […] ([4]; GI tract, read-out: GI tract (% ID)) was 5.4 %ID and the tissue uptake dose at […] ([4]; kidneys, read-out: Kidneys (% ID)) was 18 %ID. For the same molecule, the tissue uptake dose at […] ([4]; liver, read-out: Liver (% ID)) was 5.5 %ID, the tissue uptake dose at […] ([4]; lung, read-out: Lung (% ID)) was 0.24 %ID and the “Tum:Bld” value [5] was 3.3. For the same molecule, the “Tum:Con” value [5] was 10.
In the case of `CC(C)C[C@H](NC(=O)[C@H](CCCCN)NC(=O)CNC(=O)[C@H](CC(C)C)NC(=O)[C@@H](NC(=O)[C@@H]1CCCSCC(=O)N[C@@H](CO)C(=O)N[C@@H](CC(N)=O)C(=O)N[C@@H](CC(C)C)C(=O)N[C@@H](CO)C(=O)N[C@@H]([C@@H](C)O)C(=O)N1)C(C)C)C(=O)N[C@@H](CO)C(=O)N[C@@H](CSCC(=O)NC[C@H](N)C(=O)N[C@@H](CCCCN)C(=O)N[C@@H](CS)C(=O)N[C@@H](CCCCN)C(N)=O)C(=O)N[C@@H](CCC(=O)O)C(=O)N[C@@H](CC(C)C)C(=O)N[C@@H](Cc1c[nH]cn1)C(=O)N[C@@H](CCCCN)C(=O)N[C@@H](CC(C)C)C(=O)N[C@@H](CCC(N)=O)C(=O)N[C@H](C(=O)N[C@@H](Cc1ccc(O)cc1)C(=O)N1CCC[C@H]1C(=O)N[C@@H](CCCNC(=N)N)C(=O)N[C@H](C(=O)N[C@@H](CC(N)=O)C(=O)N[C@H](C(=O)NCC(=O)N[C@@H](CO)C(=O)NCC(=O)N[C@H](C(=O)N1CCC[C@H]1C(N)=O)[C@@H](C)O)[C@@H](C)O)[C@@H](C)O)[C@@H](C)O` [Peptide 5] (SNLST[hhCys(CH2CO)]VLGKLSC(X2)ELHKLQTYPRTNTGSGTP-NH2; lactam N-6), the “PK (min) t½α” value [2] is reported as 1.6 min, the “PK (min) t½β” value [2] is reported as 17 min and the tissue uptake at […] ([2]; in vivo, read-out: Blood (% ID/g)) is reported as 0.048 %ID/g. The tissue uptake dose at […] ([2]; in vivo, read-out: GI tract (% ID)) was 4.5 %ID, the tissue uptake dose at […] ([2]; in vivo, read-out: Kidneys (% ID)) was 31 %ID and the tissue uptake dose at […] ([2]; in vivo, read-out: Liver (% ID)) was 5.8 %ID. For the same molecule, the tissue uptake dose at […] ([2]; in vivo, read-out: Lung (% ID)) was 0.56 %ID.
